Measurements taken from US20250257064A1, “TRIFLUOROMETHYL-SUBSTITUTED SULFONAMIDE AS BCL-2-SELECTIVE INHIBITOR” (Chia Tai Tianqing Pharmaceutical Group Co., Ltd., priority 2018, published 2025).

Key:
[1] = system: RS4;11 cells; assay: Inhibitory effect on proliferation of RS4;11 cells (CCK-8); assay type: cell-based, human; conditions: Homo sapiens, RS4-11, 72 h
Method in brief: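 RS4;11 cells were seeded at 1×10^5 cells/mL in RPMI with 5% FBS and incubated 24 h at 37° C, 5% CO2 before compound addition in duplicate. Inhibition was calculated against untreated and blank controls. IC50 came from a four-parameter fit of log concentration versus inhibition.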

[2] = Pharmacokinetics in beagle dogs; assay type: in vivo; conditions: male, dog, plasma, po, intragastric 2.5 mg/kg
Protocol: 4.2 Pharmacokinetics in Beagle Dogs
3 male beagle dogs weighing 9-12 kg were intragastrically administered with the test compounds at a dosage of 2.5 mg/kg after adaptive feeding for a period of time.
The animals to be tested (male beagle dogs) were fasted for 12 h before administration and fed 4 h after administration, and water was freely drunk before, after and during the experiment.
After intragastric administration, about 0.5 mL of blood was collected from forelimb vein at 0.25 h (15 min), 0.5 h (30 min), 1 h, 1.5 h, 2 h, 4 h, 6 h, 8 h, 10 h, 24 h, 30 h, 48 h and 72 h, and placed in an EDTA-K2 anticoagulation tube. Blood samples were transferred to a centrifuge within 30 min, and centrifuged at 4000 rpm for 10 min at 4° C. to separate the plasma. All plasma samples were collected and immediately stored at −20° C. for testing.
50 μL of the plasma sample to be tested was added with 300 μL of acetonitrile solution containing an internal standard (20 ng/mL diazepam), shaken and mixed well for 5 min, and centrifuged at 13,000 rpm for 10 min. 75 μL of supernatant was taken and diluted with 75 μL of ultrapure water. After being mixed well, 1 μL of the resulting sample was taken for LC/MS/MS determination, and a chromatogram was recorded.
Oral exposure of the compounds disclosed herein was evaluated by in vivo pharmacokinetic experiments in beagle dogs.

Compound: CC1(C)CCC(CN2CCN(c3ccc(C(=O)NS(=O)(=O)c4ccc(NCC5CCOCC5)c([N+](=O)[O-])c4)c(Oc4cnc5[nH]ccc5c4)c3)CC2)=C(c2ccc(C(F)(F)F)cc2Cl)C1 [Compound 1-1, 4-(4-{[2-(2-chloro-4-trifluoromethylphenyl)-4,4-dimethylcyclohex-1-enyl]methyl}-piperazin-1-yl)-N-({3-nitro-4-[(tetrahydro-2H-pyran-4-ylmethyl)amino]phenyl}sulfonyl)-2-(1H-pyrrolo[2,3-b]pyridin-5-yloxy)-benzamide]
- IC50 [1]: 2.3 nM

Compound: CC1(C)CCC(CN2CCN(c3ccc(C(=O)NS(=O)(=O)c4ccc(NC[C@H]5COCCO5)c([N+](=O)[O-])c4)c(Oc4cnc5[nH]ccc5c4)c3)CC2)=C(c2ccc(C(F)(F)F)cc2Cl)C1 [Compound 8-1]
- AUC(0-inf) [2]: 27700 ± 14200 ng·h/mL
- Cmax [2]: 1430 ± 769 ng/mL
- MRT last [2]: 17.2 ± 1.62 h
- Tmax [2]: 3.33 ± 1.16 h
- AUC(0-t) ([2]; read-out: AUC0-72 h): 26300 ± 13600 ng·h/mL
- half-life ([2]; read-out: T½ (converted)): 19.5 ± 1.64 h
